# Patent US20220409580A1, “METHODS OF TREATING CONDITIONS RELATED TO THE S1P1 RECEPTOR” (Arena Pharmaceuticals, Inc., priority 2019, published 2022)
# Key:
# Format in all cases: in vivo, human
# [1] = tested on: lymphocyte count; assay: Single-blind, placebo-controlled, randomized study of PK, PD, safety and tolerability: lymphocyte count
# Protocol: (§1) A single-blind (ie, subject only), placebo-controlled, randomized, fixed-sequence, parallel design study evaluated PK, PD, safety, and tolerability in healthy Japanese and Caucasian male subjects (data reported herein is based on the preliminary clinical study report). A total of 49 subjects were enrolled and received 1 or 2 mg of Compound 1 or placebo once daily for 7 days followed by an additional single dose on Day 15, administered 1 week after a treatment-free period. […] The median percent change from baseline at Day 7 was −23.61% in the Japanese 1 mg group, −25.79% in the Caucasian 1 mg group, −50.00% in the Japanese 2 mg group, and −43.67% in the Caucasian 2 mg group. The median percent change from baseline at Day 15 (pre-dose) was 0.00% in the Japanese 1 mg group, −21.43% in the Caucasian 1 mg group, −6.67% in the Japanese 2 mg group, and −16.23% in the Caucasian 2 mg group. In depth immunophenotyping was performed in healthy subjects.
# [2] = tested on: circulating B cells, CD4+ TCM, CD4+ TN, Th17, Th2, CD8+ TCM, and CD8+TN cells; assay: In depth immunophenotyping in healthy subjects (FIG. 3); details: 1 or 2 mg once daily, peaked at Day 7 pre-dose
# Protocol: as §1
# [3] = tested on: UC; assay: Phase 2 dose-ranging study in UC patients and open-label extension study; details: UC patients
# Protocol: (§2) Compound 1, or a pharmaceutically acceptable salt, solvate, or hydrate thereof, is an orally administered, selective, synthetic sphingosine 1-phosphate (S1P) receptor 1, 4, 5 modulator. […] Its safety and tolerability have been evaluated in Phase 1 studies with healthy adult subjects at single doses up to 5 mg and repeated doses up to 4 mg once daily (QD).
# [4] = Safety and tolerability in adult subjects, including Phase 1 studies with healthy adult subjects; details: approximately 281 adult subjects at various doses; single doses up to 5 mg, repeated doses up to 4 mg QD
# Protocol: as §2
smiles,measurement,setting,value
"O=C(O)C[C@H]1CCc2c1[nH]c1ccc(OCc3ccc(C4CCCC4)c(C(F)(F)F)c3)cc21 [Compound 1, (R)-2-(7-(4-cyclopentyl-3-(trifluoromethyl)benzyloxy)-1,2,3,4-tetrahydrocyclopenta[b]indol-3-yl)acetic acid]",median percent change from baseline in lymphocyte count,"[1]; Day 7, Caucasian 1 mg group, once daily for 7 days, healthy male subjects",−25.79%
same,median percent change from baseline in lymphocyte count,"[1]; Day 7, Caucasian 2 mg group, once daily for 7 days, healthy male subjects",−43.67%
same,median percent change from baseline in lymphocyte count,"[1]; Day 7, Japanese 1 mg group, once daily for 7 days, healthy male subjects",−23.61%
same,median percent change from baseline in lymphocyte count,"[1]; Day 7, Japanese 2 mg group, once daily for 7 days, healthy male subjects",−50.00%
same,median percent change from baseline in lymphocyte count,"[1]; Day 15 (pre-dose), after 1 week treatment-free period, Caucasian 1 mg group",−21.43%
same,median percent change from baseline in lymphocyte count,"[1]; Day 15 (pre-dose), after 1 week treatment-free period, Caucasian 2 mg group",−16.23%
same,median percent change from baseline in lymphocyte count,"[1]; Day 15 (pre-dose), after 1 week treatment-free period, Japanese 1 mg group",0.00%
same,median percent change from baseline in lymphocyte count,"[1]; Day 15 (pre-dose), after 1 week treatment-free period, Japanese 2 mg group",−6.67%
same,median lymphocyte count,"[1]; all treatment groups, from first dose (Day 2) through end of repeated dosing period on Day 8",Progressive decreases
same,"total lymphocyte count, including Th2 T cells","[1]; healthy subjects, 1 or 2 mg once daily",dose-dependent decrease
same,"median number of circulating B cells, CD4+ TCM, CD4+ TN, Th17, Th2, CD8+ TCM, and CD8+TN cells",[2],dose-dependent decrease
same,endoscopic and symptomatic improvements versus placebo,[3]; 2 mg QD for 12 weeks,clinically meaningful and statistically significant endoscopic and symptomatic improvements
same,beneficial effects in open-label extension study,[3]; up to 46 weeks,Sustained beneficial effects
same,safety and tolerability,[4],safe and well-tolerated
